The results in this text go back to publication PMC6382874, “Succinylation-dependent mitochondrial translocation of PKM2 promotes cell survival in response to nutritional stress” (Cell Death & Disease, 2019).

The subject of one assay is VDAC3. Briefly: VDAC3 protein level (western blot) in HCT116 cells. Particulars: 10 or 20 µM, 8 h. It is filed as cell-based, human. The text has this: HCT116 cell lysates were subject to immunoprecipitation with control IgG and anti-VDAC3 antibodies. d, e In vitro binding assay of purified His-tagged-PKM2 and GST-tagged-VDAC3. f K433E enhanced the interaction of PKM2 and VDAC3. Stagged-WT PKM2, a succinylation mimic K433E and a succinylation null mutant K433R and flag-VDAC3 were co-transfected into HCT116 cells for Stag bead pull down that specially pulls down Stagged proteins. g Glucose starvation enhanced the interaction of PKM2 and VDAC3. […]
Fig. 6 Compound 8 blocks PKM2 mitochondrial translocation under nutritional stress and inhibits tumor growth in vivo. a Compound 8 blocks glucose starvation induced PKM2 mitochondrial translocation. […] HCT116 cells were transfected with HA-tagged PKM2, cells were harvested and subjected to stag pull down after 8 h 20 µM compound 8 treatment. c Compound 8 induces VDAC3 for degradation. cells were harvested and evaluated VDAC3 protein levels after 8 h 10 or 20 µM compound 8 treatment. d, e Compound 8 caused a decrease in the rate of NADH oxidation. […] NAD/NADH ratios in HCT116 cell lysates were evaluated by LC–MS. f Compound 8 inhibited ATP production in HCT116 cells. g The tumor volume (n = 7) of HCT116 xenografts from mice with intraperitoneal injection of compound 8 and vehicle control […]
Background: A western blot detects proteins with antibodies after separation by electrophoresis.

A further assay deals with HCT116 cells. Briefly: ATP measurement, Cell Titer-Glo, HCT116 cells. The format is cell-based, human. As to conditions: 10 or 20 μM, 8 h. As for the experimental part:
HCT116 cells were cultured in DMEM containing 10% FBS and seeded into six-well plates. Twenty-four hour after seeding, the medium was changed to DMEM containing 10 or 20 μM compound 8 for 8 h. ATP levels were measured using the Cell Titer-Glo Luminescent Cell Viability Assay (Promega).
In general terms: ATP-based viability assays read luminescence as a measure of living cells.

The test system of the next assay is MCF7 cells. In words: cell viability test, MCF7. As to conditions: cell viability, 48 h, read-out: IC50 (MCF7). The format is cell-based. As for the experimental part: We assessed the anti-tumor effects of compound 8 by evaluation of cancer cell viability. Compound 8 reduced cell viability with an IC50 of about 5 µM in MTT reduction assays in HCT116, MCF7, and H1299 cells (Table 2). […] To determine whether cancer cell death brought about by compound 8 is PKM2 dependent, PKM2 was knocked down in HCT116 cells using two different shRNA sequences that specifically targeted exon 10 without interfering with PKM1 expression. Compound 8 is an inhibitor which causes a loss of function of PKM2. If PKM2 is a specially targeted by compound 8, its knockdown should render cells more vulnerable to compound 8-mediated PKM2 inhibition since shRNA and compound 8 work synergistically by reducing the intracellular drug target concentration.
Cells were seeded in 96-well plates at 5000 cells/well in DMEM media overnight. Cells were treated with different concentrations of test compound for 48 h at 37 °C in 5% CO2. Cell viability was assayed with the MTS assay (Promega) and trypan blue staining according to the manufacturer’s instructions.

A further assay has as its target T1, PKL (Homo sapiens, UniProt P30613).
T1 construct: purchased Sino Biological Inc
In words: fluorescent PK-LDH coupled assay, PKL. It is filed as biochemical. Particulars: PK-LDH coupled assay; read-out: IC50 (PKL). As for the experimental part: Human cDNA for PKM2, PKM1, and VDAC3 were separately cloned into a pET28a (+) and pGEX-4T-1 vector with an N-terminal His-tag and N-terminal GST-tag and purified from the Escherichia coli strain BL21 (Invitrogen) using Ni–agarose beads and GST agarose beads (Qiagen) as described previously. PKL was purchased from Sino Biological Inc. in China.
Pyruvate kinase activity was measured with a fluorescent pyruvate kinase–lactate dehydrogenase coupled assay as described previously. All compounds were tested in a kinetic mode by coupling the generation of pyruvate by pyruvate kinase to the depletion of NADH through lactate dehydrogenase. For PKM2, 40 μL of buffer (50 mM Tris–HCl, pH 7.5, 10 mM KCl, 5 mM MgCl2), 1 μL of compound and 5 μL of enzyme solution were dispensed into Corning black solid 96-well plates and incubated for 15 min. Totally, 55 μL of substrate mix (final concentration, 0.5 mM PEP, 4.0 mM ADP, 0.12 mM NADH, 0.25 mM FBP, and 1 unit LDH) were then added, and the plates were placed in a FlexStation3 (Molecular Devices), followed by determination of NADH fluorescence at 30 s exposure intervals for 3–6 min. Data were collected on a FlexStation3.

Where two headings read alike, the source gives them in different places.

T1 sequence (P30613 1-543 isoform P30613-2, species assumed): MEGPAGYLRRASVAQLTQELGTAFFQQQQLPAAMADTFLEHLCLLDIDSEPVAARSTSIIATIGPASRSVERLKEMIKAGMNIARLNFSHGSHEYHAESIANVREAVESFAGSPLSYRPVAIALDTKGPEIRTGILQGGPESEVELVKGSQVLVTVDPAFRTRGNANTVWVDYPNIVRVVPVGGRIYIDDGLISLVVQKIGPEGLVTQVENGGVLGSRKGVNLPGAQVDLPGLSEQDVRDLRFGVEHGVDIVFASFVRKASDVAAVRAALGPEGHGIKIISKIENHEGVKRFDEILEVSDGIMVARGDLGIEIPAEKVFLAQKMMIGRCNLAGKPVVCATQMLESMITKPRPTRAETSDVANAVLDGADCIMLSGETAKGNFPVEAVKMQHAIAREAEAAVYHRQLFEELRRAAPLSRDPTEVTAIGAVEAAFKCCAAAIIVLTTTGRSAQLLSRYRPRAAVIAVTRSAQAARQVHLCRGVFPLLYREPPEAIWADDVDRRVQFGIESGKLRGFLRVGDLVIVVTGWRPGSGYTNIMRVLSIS

Consider `CCCN(CCC)P(N)(=O)OCC1=CC(=O)c2ccccc2C1=O` (centres unmarked) [Compound 8], for which the VDAC3 protein level entry in the assay with VDAC3 is on record as “caused VDAC3 degradation”. The “cellular ATP production” value in the assay on HCT116 cells was “inhibited cellular ATP production in a concentration-dependent manner”. Also, the IC50 with MCF7 cells (Homo sapiens, MCF7, 48 h) is ~5 µM; with MCF7 cells it was 5.4 ± 1.14 µM; on PKL, 20.4 ± 3.54 µM.

What is called IC50 is the concentration at which inhibition is half-maximal.
